{P} = phosphate

The test system of data set [1] is Cloudman S91 mouse melanoma cells. The data set can be described thus: Melanin content of Cloudman S91 melanoma cells. It is filed as cell-based. The conditions noted are these: for increase in melanin content: variations of the 9-mer, cells not given; for melanogenic activity: with 5′ phosphate, FIG. 18. How it is done: (§1) The induction of melanogenesis in Cloudman S91 mouse melanoma cells by a five-nucleotide oligomer CATAC (SEQ ID NO: 6) and a nine-nucleotide oligomer, GAGTATGAG (SEQ ID NO: 1) was examined. Duplicates of Cloudman S91 murine melanoma cells were incubated with either 100 μM oligo or an equal volume of diluent (H2O) for 5 days. The cells were then collected, counted, and an equal number of cells were pelleted for melanin analysis. […] Variations of this oligonucleotide were evaluated: a scrambled 9-mer (TAGGAGGAT; SEQ ID NO: 2) and two truncated versions, a 7-mer (AGTATGA; SEQ ID NO: 3) and second 5-mer (GTATG; SEQ ID NO: 4). […] The truncated versions (SEQ ID NOs: 3 and 4) were also active, inducing 640% and 670% increases, respectively.
Cultures of Cloudman S91 murine melanoma cells were treated for 5 days with SEQ ID NO: 1, SEQ ID NO: 6, pTpT as a positive control, or an equal volume of diluent as a negative control. […] SEQ ID NO: 6 produced a slight increase in melanin, to 165+/−77% of control levels. SEQ ID NO: 1 stimulated melanin content to an average of 600+/−260% of control levels.
pTpT, shown previously to stimulate pigmentation in these cells, was used as a reference treatment, and diluent alone was used as a negative control. After five days of treatment with the oligonucleotides, the cells were collected, counted, and an equal number of cells were pelleted for melanin analysis. […] SEQ ID NO: 5, representing the telomere over-hang sequence, also at 10 μM, increased the melanin level to 10 times that of control cells.
S91 cells were cultured in the presence of diluent alone, pTpT p9mer (SEQ ID NO: 1), p7mer (AGTATGA; SEQ ID NO: 7) or p5mer #2 (SEQ ID NO: 4). […] Both SEQ ID NOS: 4 and 7 stimulated a 7–8 fold increase in melanin.
S91 cells were cultured for 5 days in the presence of the thymidine dinucleotides or SEQ ID NO: 1 with or without a 5′ phosphate or diluent alone as a negative control.
Cultures of S91 mouse melanoma cells (100,000 cells/38 cm^2) were treated with 100 μM pTpT or phosphorothioate pTpT (pTspT) (FIG. 22) or 40 μM 11mer-1 or the phosphorothioate 11mer-1 (11mer-1-S) (FIG. 23) for 6 days and were then collected, counted and assayed for melanin content.
Duplicate cultures of S91 cells (100,000 cells/39 cm^2) were either sham-irradiated or irradiated with 5 mJ/cm^2 solar-simulated light from a 1 kW xenon arc solar-simulator (XMN 1000-21, Optical Radiation, Azuza, Calif.) metered at […] using a research radiometer (model IL1700A, International Light, Newburyport, Mass.). Two sham-irradiated plates were then supplemented with 100 μM pTspT and two irradiated cultures were similarly treated with pTspT. After one week, cells were collected, counted and analyzed for melanin content by dissolving the cell pellets in 1 N NaOH and measuring the optical density at […]. […] However, this response was blocked by the addition of pTspT (FIG. 24). In addition, the constitutive pigmentation of these cells was reduced by the pTspT in the sham-irradiated cultures, similar to the data presented in FIGS. 22 and 23.

Data set [2] relates to Human squamous carcinoma cell line SCC12F cells. The data set can be described thus: Cell growth / cell yield of SCC12F cells (Coulter counter). In kind it is cell-based. Conditions: after 2 days; FIG. 14. How it is done:
Human squamous carcinoma cell line SCC12F cells were maintained in primary keratinocyte medium (300 ml DME, 100 ml F-12 nutrient supplement, 50 ml 10× adenine, 50 ml fetal bovine serum, 5 ml penicillin/streptomycin stock, and 0.5 ml of 10 μg/ml epidermal growth factor and hydrocortisone to final concentration of 1.4 μg/ml) and dosed with either water (diluent), 100 μM pTpT (T2, Midland Certified Reagent Company, Midland, Tex.) or 100 μM pdApdA (A2). Cells were harvested before dosing (day 0), and 1, 3, 4, and 5 days after dosage, and were counted by Coulter™ counter. After harvesting, the cells were processed for total RNA isolation and were analyzed by Northern blot. Addition of a control deoxyadenine dinucleotide (pdApdA), a compound very similar to pTpT but not readily dimerized by UV irradiation, and therefore rarely excised during the course of UV-induced DNA repair, has no effect.
In a second experiment, SCC12F cells were cultured as described above. Two or three days after seeding, the preconfluent cultures were given fresh medium supplemented with either 100 μM T2 or diluent as a control. Cells were collected daily by trypsinization and counted by Coulter™ counter. The cell yield in cultures treated with T2 was reduced by […] compared to that of paired control cultures after five days (FIG. 2). This corresponds to 2.3 population doublings in this time for control cells, compared with 1 doubling for T2-treated cells.
(§2) pTpT was previously found to inhibit cell cycle progression, at least in part through activation of p53 and subsequent upregulation of the cyclin dependent kinase inhibitor p21. Cultures of the human keratinocyte line SCC12F were treated with pTpT, SEQ ID NO: 1, SEQ ID NO: 6 or diluent alone as a negative control, collected and counted 48 hours later and processed for northern blot analysis of p21 mRNA expression. […] Thus, the sequences of the present invention activate p53 and inhibit cell proliferation similar to the effect of pTpT.
Exposure of keratinocytes to UVB irradiation affects the expression of genes involved in cell cycle arrest, DNA repair and cytokine production. Single-stranded oligonucleotides sharing sequence homology with the telomere 3′ overhang, when introduced into cells, mimic these UV effects. To identify other genes that may be similarly modulated, cells of keratinocyte origin (SCC12F; a human epidermal squamous cell carcinoma line provided by Dr. James Rheinwald of Harvard University) were exposed to solar simulated irradiation (SSR) (20 mJ/cm^2, measured at 285±5 nm), to an 11-base oligonucleotide (pGTTAGGGTTAG; SEQ ID NO:5) homologous to the telomere overhang (T-oligo), or to a complementary sequence as control [pCTAACCCTAAC; (SEQ ID NO:9) control oligonucleotide]. […] These are mitochondrial-transcribed genes whose encoded proteins participate in cellular respiration.

For a further data set, the system named is p21/Waf 1/Cip 1 gene. The data set can be described thus: p21 mRNA Northern blot in SCC12F cells. It is filed as cell-based, human. Conditions: 48 hours. How it is done: as §1, §2
In a further data set the test system is Jurkat cells. The data set can be described thus: FACS cell cycle / apoptosis analysis of Jurkat cells. In kind it is cell-based, human. How it is done:
Oligonucleotides homologous to the telomere overhang repeat sequence (TTAGGG; SEQ ID NO:11), sequence (11mer-1: pGTTAGGGTTAG; SEQ ID NO: 5), complementary to this sequence (11mer-2: pCTAACCCTAAC; SEQ ID NO: 9) and unrelated to the telomere sequence (11mer-3: pGATCGATCGAT; SEQ ID NO: 10) were added to cultures of Jurkat cells, a line of human T cells, one of the cell types reported to undergo apoptosis in response to telomere disruption. Within 48 hours, 50% of the cells treated with 40 μM of SEQ ID NO: 5 had accumulated in the S phase, compared to 25–30% for control cells (p<0.0003, non-paired t-test; see FIGS. 19A–19D), and by 72 hours, 13% of these cells were apoptotic as determined by a sub-G0/G1 DNA content, compared to 2–3% of controls (p<0.007, non-paired t-test; see FIGS. 19E–19H). At 96 hours, 20±3% of the 11mer-1 treated cells were apoptotic compared with 3–5% of controls (p<0.0001, non-paired t-test). To exclude preferential uptake of the 11mer-1 as an explanation of its singular effects, Jurkat cells were treated with oligonucleotides labeled on the 3′ end with fluorescein phosphoramidite, then subjected to confocal microscopy and FACS analysis. The fluorescence intensity of the cells was the same after all treatments at 4 hours and 24 hours.
Three DNA oligonucleotides were designed initially: one homologous to the telomere overhang (11mer-1: pGTTAGGGTTAG; SEQ ID NO:5), one complementary to this sequence (11mer-2: pCTAACCCTAAC; SEQ ID NO:9) and one unrelated (11mer-3: pGATCGATCGAT; SEQ ID NO:10). For later experiments, additional 11 base oligonucleotides were designed: one a simple permutation of 11mer-1 (pGGGTTAGGGTT; SEQ ID NO:13), one with the same number of G residues but roughly 50% rather than 100% homology to the overhang (pTAGATGTGGTG; SEQ ID NO:14), and one with roughly 50% overhang homology but also containing cytosine bases (pCGGGCTTATTG; SEQ ID NO:15) (Midland Certified Reagent Company, Midland, Tex.). Cell Sources and Culture Human neonatal fibroblasts were established and cultured as previously described (Eller, M. S., et al., 1997, Proc Natl Acad Sci USA 94: 12627–12632). Fibroblasts from a Nijmegen breakage syndrome (NBS) patient (#GM07166) and an age-matched control (GM03399) were purchased from the NIGMS Human Cell Repository, Coriell Institute for Medical Research, Camden, N.J.) and cultured in DMEM/15% FBS. Saos-2 cells were purchased from the American Type Culture Collection (ATCC; Manassas, Va.). SCC12F cells were the kind gift of Dr. James Rheinwald, Harvard University. Cell Cycle Analysis The established line of human T lymphocytes, termed Jurkat cells (180,000 cells/ml) were plated in RPMI medium 1640 supplemented with 3% FBS (both from GIBCO/BRL, Gaithersburg, Md.). […] Cells were collected up to 96 hours after treatment, stained with propidium iodide and analyzed by FACS using a Becton-Dickinson FacsScan and CellQuest software. Caspase Activity
Oligonucleotides homologous to the 3′ overhang sequence (11mer-1: pGTTAGGGTTAG; SEQ ID NO:5), complementary to this sequence (11mer-2: pCTAACCCTAAC; SEQ ID NO:9) and unrelated to the telomere sequence (11mer-3: pGATCGATCGAT; SEQ ID NO:10) were synthesized. The three 11mer oligonucleotides were added to cultures of Jurkat cells, an established line of human T lymphocytes, a cell type reported to undergo apoptosis in response to telomere disruption [Karlseder, J., et al, (1999) Science 283, 1321–1325] and DNA damaging ionizing radiation (IR) [Vigorito, E., et al, (1999), Hematol Cell Ther 41, 153–161]. Duplicate cultures of Jurkat cells were treated with a final concentration of 40 μM 11mer-1, -2 or -3, oligonucleotides, or an equal volume of diluent (water) as a control. Cells were collected up to 96 hours after treatment, stained with propidium iodideandanalyzed by FACS. See also Example 13 and FIGS. 19A–19H.
To further confirm the specificity of these responses to the telomere overhang sequence, three variations were tested. […]

In the next data set the test system is S91 cells. In words: Cellular uptake of FAM-labeled oligonucleotides in S91 cells. In kind it is in vitro ADME, mouse. The conditions noted are these: 4 hours. The procedure: Fluorescein phosphoramidite (FAM) labeled oligonucleotides were added to cultures of S91 cells for 4 hours and the cells were then prepared for confocal microscopy. Nuclei, identified by staining with propidium iodide, appeared red and FAM-labeled oligonucleotides appeared green. Co-localization of red and green signals was assigned a yellow color by the computer. […] There was no change in the profile of oligonucleotide uptake after 6 and 24 hours.

As to “AGTATGA (DNA, phosphodiester; further chemistry not fully specified) [SEQ ID NO: 3]”, in data set [1], the “increase in melanin content” value was determined as 640%.
For the substance “CATAC (DNA, phosphodiester; further chemistry not given here) [SEQ ID NO: 6]”, the “reduction of cell number” value in data set [2] is reported as 25%. For the same substance, the “pigment content increase, of control levels” value in data set [1] (100 μM, 5 days, three experiments) is on record as 61%±60%. In data set [1] (5 days, FIG. 12), the “melanin content, of control cells” value is listed as 165+/−77%. In addition, the “increase in p21 mRNA level” value with p21/Waf 1/Cip 1 gene is listed as 10–20%.
Consider “pTAGATGTGGTG (DNA, 5' {P}, backbone not given here) [SEQ ID NO:14]”, for which the “apoptotic cells by FACS analysis” value in the data set on Jurkat cells (10 μM, 72 hours) was determined as 10%; in the data set with Jurkat cells (10 μM, 96 hours), 16%.
As for pTspT, in data set [1] (100 μM dinucleotides or 40 μM 11mers, 6 days), the melanogenesis result was “did not”. Further, the constitutive pigmentation entry in data set [1] (100 μM pTspT or 40 μM 11mer-1-S, 6 days or one week) is on record as “reduced the constitutive pigmentation”. Moreover, in data set [1] (100 μM, 5 mJ/cm^2 solar-simulated light, one week), the “UV-induced doubling of melanin content” value is “blocked”.
“GTATG (DNA, phosphodiester; further chemistry not fully specified) [SEQ ID NO: 4]”: the “increase in melanin content” value in data set [1] turned out to be 670%.
The same measure, in the same setting: as for “TAGGAGGAT (DNA, phosphodiester; further chemistry not fully specified) [SEQ ID NO: 2]”, the figure is 800%.
“GAGTATGAG (DNA, phosphodiester; further chemistry not fully specified) [SEQ ID NO: 1 without 5′ phosphorylation]”: the “cellular uptake and localization (confocal microscopy, FACS)” value in the data set on S91 cells is reported as “only moderate uptake”.
Consider “CCCTAA (DNA, backbone not given here) [SEQ ID NO: 12]”, for which the melanogenic activity result in data set [1] is listed as “less active”.
With “pCGGGCTTATTG (DNA, 5' {P}, backbone not given here) [SEQ ID NO:15, reference compound]”, the “apoptosis and S-phase arrest” value in the data set with Jurkat cells (10 μM) was “failed to induce apoptosis and only induced a moderate S-phase arrest”. In addition, the “apoptotic cells by FACS analysis” value is reported as 2% in the data set with Jurkat cells (10 μM, 72 hours) and 2–4% in the data set on Jurkat cells (10 μM, 96 hours).
Regarding pGGGTTAGGGTT [SEQ ID NO:13], the “apoptotic cells by FACS analysis” value was 13% in the data set with Jurkat cells (10 μM, 72 hours) and 28% in the data set with Jurkat cells (10 μM, 96 hours). Besides, the “activity of the two complete telomere overhang homologs” value with Jurkat cells (separate paired cultures) is listed as “equal in activity”.
For the substance “TTAGGG (Synthetic DNA Fragment) [SEQ ID NO: 11]”, the melanogenic activity result in data set [1] is listed as “highly melanogenic”.

Values taken from patent publication US7033829B2, “Method to inhibit cell growth using oligonucleotides” (Trustees of Boston University, priority 2000, dated 2006).
